Key:
[1] = target: T1, hERG (Homo sapiens, UniProt Q12809); test: hERG inhibition test (Predictor hERG Fluorescence Polarization assay kit); type: binding; conditions: probe kit Tracer (fluorescent hERG ligand), hERG % inhibition at 10 uM, relative to E-4031 and solvent control
T1 construct: purchased Invitrogen PV5365
Outline: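 Competitive fluorescence-polarization binding of fluorescent tracer to hERG membrane preparation, 2.5 h at room temperature, mP read at 531/579 nm. % inhibition at 10 uM test compound, scaled between solvent control (0%) and E-4031 (100%).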

[2] = target: T2, human GLP-1 receptor (Homo sapiens, UniProt P43220); test: cAMP activity test (cAMP dynamic HTRF kit) in CHO-K1/GLP-1 receptor-expressing cells; type: cell-based; conditions: cAMP activity, CHO-K1/GLP-1 receptor-expressing cells; read-out: EC50
T2 construct: host or cells: CHO-K1
T2 sequence (P43220 24-463): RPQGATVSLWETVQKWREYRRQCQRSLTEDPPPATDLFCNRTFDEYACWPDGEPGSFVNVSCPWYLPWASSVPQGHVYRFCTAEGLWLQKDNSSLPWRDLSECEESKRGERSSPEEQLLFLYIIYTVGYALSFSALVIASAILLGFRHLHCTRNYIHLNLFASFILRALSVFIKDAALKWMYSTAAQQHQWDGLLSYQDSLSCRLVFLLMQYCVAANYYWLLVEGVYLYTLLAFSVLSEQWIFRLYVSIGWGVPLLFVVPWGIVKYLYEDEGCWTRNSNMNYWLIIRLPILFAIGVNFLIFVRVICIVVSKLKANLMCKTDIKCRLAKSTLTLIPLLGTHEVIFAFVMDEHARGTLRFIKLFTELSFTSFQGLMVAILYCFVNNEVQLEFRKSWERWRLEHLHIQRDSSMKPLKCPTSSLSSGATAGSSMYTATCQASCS
Outline: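 Cells in HBSS with 0.1% BSA, 0.5 mM IBMX and 5 mM HEPES, then lysed; cAMP-d2 and anti-cAMP cryptate added for 3 h. HTRF read-out, where FRET signal is inversely proportional to intracellular cAMP.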

T1 sequence (Q12809 whole entry): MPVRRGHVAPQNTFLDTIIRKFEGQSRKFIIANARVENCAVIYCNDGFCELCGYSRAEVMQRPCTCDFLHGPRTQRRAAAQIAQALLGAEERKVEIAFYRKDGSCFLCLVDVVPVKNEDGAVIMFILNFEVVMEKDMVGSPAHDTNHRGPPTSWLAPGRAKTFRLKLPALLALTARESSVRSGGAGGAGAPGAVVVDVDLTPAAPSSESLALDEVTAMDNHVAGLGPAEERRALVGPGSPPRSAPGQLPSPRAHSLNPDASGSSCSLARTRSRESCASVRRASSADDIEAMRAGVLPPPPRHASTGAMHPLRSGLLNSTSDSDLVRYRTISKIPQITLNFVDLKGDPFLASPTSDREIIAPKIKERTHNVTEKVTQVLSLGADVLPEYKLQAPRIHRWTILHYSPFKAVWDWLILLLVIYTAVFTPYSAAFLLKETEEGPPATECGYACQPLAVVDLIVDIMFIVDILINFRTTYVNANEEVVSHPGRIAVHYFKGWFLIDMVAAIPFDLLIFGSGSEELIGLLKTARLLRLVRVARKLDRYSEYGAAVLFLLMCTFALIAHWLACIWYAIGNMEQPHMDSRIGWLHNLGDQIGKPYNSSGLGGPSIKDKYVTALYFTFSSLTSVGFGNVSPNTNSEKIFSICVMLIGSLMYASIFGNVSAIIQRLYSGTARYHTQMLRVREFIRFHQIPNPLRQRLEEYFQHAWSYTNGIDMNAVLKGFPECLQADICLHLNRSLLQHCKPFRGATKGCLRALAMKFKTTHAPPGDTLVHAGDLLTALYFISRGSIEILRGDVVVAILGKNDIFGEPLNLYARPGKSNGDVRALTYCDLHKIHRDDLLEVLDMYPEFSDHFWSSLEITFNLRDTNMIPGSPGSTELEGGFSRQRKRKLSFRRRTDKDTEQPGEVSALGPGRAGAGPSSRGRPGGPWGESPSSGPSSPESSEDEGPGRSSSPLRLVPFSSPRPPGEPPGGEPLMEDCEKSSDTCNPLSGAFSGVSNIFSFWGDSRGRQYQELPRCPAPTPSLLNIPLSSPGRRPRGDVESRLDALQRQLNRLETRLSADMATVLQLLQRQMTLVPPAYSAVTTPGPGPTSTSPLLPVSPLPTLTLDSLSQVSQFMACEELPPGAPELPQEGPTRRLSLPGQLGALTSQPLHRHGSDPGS

Structure (SMILES) | EC50 [2] [nM] | inhibition at 2.5 h, 10 µM [1] [%]
COCCn1c(Cc2ccc(-c3cccc(OCc4ccc(Cl)cc4F)c3)cc2)nc2ccc(C(=O)O)cc21 [Example 22, 2-((3′-(4-chloro-2-fluorobenzyloxy)biphenyl-4-yl)methyl)-1-(2-methoxyethyl)-1H-benzo[d]imidazole-6-carboxylic acid] | 130 | -15.5
Cc1ccc(COc2cccc(-c3ccc(Cc4nc5ccc(C(=O)O)cc5n4CC4CCCO4)c(F)c3)n2)cc1 (centres unmarked) [Example 76, 2-(2-fluoro-4-(6-(4-methylbenzyloxy)pyridin-2-yl)benzyl)-1-((tetrahydrofuran-2-yl)methyl)-1H-benzo[d]imidazole-6-carboxylic acid] | 38 | -0.5
Cc1cccc(COc2cccc(-c3ccc(Cc4nc5ccc(C(=O)O)cc5n4CC4CCCO4)cc3F)n2)c1 (centres unmarked) [Example 90, 2-(3-fluoro-4-(6-(3-methylbenzyloxy)pyridin-2-yl)benzyl)-1-((tetrahydrofuran-2-yl)methyl)-1H-benzo[d]imidazole-6-carboxylic acid] | 250 | 20.2
N#Cc1ccc(COc2cccc(-c3ccn(Cc4nc5ccc(C(=O)O)cc5n4C[C@@H]4CCCO4)c(=O)c3)n2)c(F)c1 [Example 109, (S)-2-((4-(6-(4-cyano-2-fluorobenzyloxy)pyridin-2-yl)-2-oxopyridin-1(2H)-yl)methyl)-1-((tetrahydrofuran-2-yl)methyl)-1H-benzo[d]imidazole-6-carboxylic acid] | 130 | 6.49
O=C(O)c1ccc2nc(Cc3ccc(-c4cccc(OCc5ccc(Cl)cc5F)c4)cc3F)n(Cc3cnco3)c2c1 [Example 32, 2-((3′-(4-chloro-2-fluorobenzyloxy)-3-fluorobiphenyl-4-yl)methyl)-1-(oxazol-5-ylmethyl)-1H-benzo[d]imidazole-6-carboxylic acid] | 32 | -11.7
O=C(O)c1ccc2nc(Cc3ccc(-c4cccc(OCc5ccc(Cl)cc5F)n4)c(F)c3)n(Cc3cccs3)c2c1 [Example 50, 2-(4-(6-(4-chloro-2-fluorobenzyloxy)pyridin-2-yl)-3-fluorobenzyl)-1-(thiophen-2-ylmethyl)-1H-benzo[d]imidazole-6-carboxylic acid] | 15 | 4.72

Molecules with a lower EC50 [2], results first:

EC50 [2] [nM] | Structure (SMILES) | inhibition at 2.5 h, 10 µM [1] [%]
9.5 | COc1ccc(COc2cccc(-c3ccc(Cc4nc5ccc(C(=O)O)cc5n4C[C@@H]4CCO4)cc3F)n2)cc1 [Example 122, (S)-2-(3-fluoro-4-(6-((4-methoxybenzyl)oxy)pyridin-2-yl)benzyl)-1-(oxetan-2-ylmethyl)-1H-benzo[d]imidazole-6-carboxylic acid] | -5.75
< 3.2 | O=C(O)c1ccc2nc(Cc3cc(F)c(-c4cccc(OCc5ccc(Cl)cc5F)n4)cc3F)n(C[C@@H]3CCO3)c2c1 [Example 86, (S)-2-(4-(6-(4-chloro-2-fluorobenzyloxy)pyridin-2-yl)-2,5-difluorobenzyl)-1-(oxetan-2-ylmethyl)-1H-benzo[d]imidazole-6-carboxylic acid] | 8.93
9 | O=C(O)c1ccc2nc(Cc3ccc(-c4cccc(OCc5ccc(Cl)cc5F)n4)c(F)c3)n(Cc3cnco3)c2c1 [Example 35, 2-(4-(6-(4-chloro-2-fluorobenzyloxy)pyridin-2-yl)-3-fluorobenzyl)-1-(oxazol-5-ylmethyl)-1H-benzo[d]imidazole-6-carboxylic acid] | -3.82
4 | O=C(O)c1ccc2nc(Cc3ccc(-c4cccc(OCc5ccc(Cl)cc5F)n4)c(F)c3F)n(C[C@@H]3CCO3)c2c1 [Example 82, (S)-2-(4-(6-(4-chloro-2-fluorobenzyloxy)pyridin-2-yl)-2,3-difluorobenzyl)-1-(oxetan-2-ylmethyl)-1H-benzo[d]imidazole-6-carboxylic acid] | 7.24
